Read-outs that look alike come from different tables or passages of the source.
Legend:
[1] = target: T1, JAK2 JH2 WT (V536-D812) [W659A, W777A, F794H solubilizing mutations] (Homo sapiens, UniProt O60674, F794H/W659A/W777A); assay: Surface Plasmon Resonance (SPR) binding assay, JAK2 JH2 domain
T1 construct: **JAK2 JH2 WT (V536-D812) [W659A, W777A, F794H solubilizing mutations]; C-thrombin-avi-His6; thrombin cleavage site (C); His6 (C); purchased Biortus
How it was run: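 Kinetics came from 1:1 fits of single-cycle runs at 20 °C: four 3-fold dilutions from 5 uM for JH1 or 500 nM for JH2, 60 s association, and 300 s or 1200 s dissociation respectively. Protein was freshly captured per compound in the presence of 10 uM stabilizer compound, with running buffer of pH 7.5 HEPES/NaCl/glycerol/DTT plus 2% DMSO.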

[2] = tested on: TF1 JAK2 V617F STAT3 reporter; assay: Cellular TF1 STAT3 assay (luciferase reporter), JAK2 V617F; format: cell-based; conditions: read-out: Cell PD-TF1 JAK2 V617F STAT3 (IC50)
How it was run: (§1)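 TF1 V617F JAK2 reporter cells, 10k/well; 10-pt 1:3 dose response from 10 mM 1000× DMSO stock; 18-20 h, 37 °C, 5% CO2; ONE-glo, 10 min RT; luminescence. Triplicate plates, DMSO vehicle.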

[3] = tested on: TF1 JAK2 V617F STAT5 reporter; assay: Cellular TF1 STAT5 assay (luciferase reporter), JAK2 V617F; format: cell-based; conditions: read-out: Cell PD TF1 V617F STAT5 (IC50)
How it was run: as §1

[4] = Homo sapiens, TF-1, TF1 cells, JAK2 V617F

T1 sequence (O60674 536-812 W659A/W777A/F794H): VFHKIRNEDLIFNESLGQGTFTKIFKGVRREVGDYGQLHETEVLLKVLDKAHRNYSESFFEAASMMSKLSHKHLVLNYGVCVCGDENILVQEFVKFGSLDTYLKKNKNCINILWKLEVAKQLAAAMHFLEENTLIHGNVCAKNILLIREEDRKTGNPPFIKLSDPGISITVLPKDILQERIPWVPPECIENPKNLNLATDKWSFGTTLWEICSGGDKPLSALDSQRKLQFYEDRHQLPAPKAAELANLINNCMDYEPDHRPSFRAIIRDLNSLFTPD

| SMILES | Kd [1] [nM] | IC50 [2, 4] [nM] | IC50 [3, 4] [nM] | Kd ([1]; SPR, JAK2 JH2 domain) [nM] | IC50 ([2]; TF1 JAK2 V617F) [nM] | IC50 ([3]; TF1 JAK2 V617F) [nM] |
| --- | --- | --- | --- | --- | --- | --- |
| CNC(=O)c1nnc(NC(=O)C2CC2)cc1Nc1cccc(-c2cnn(C3CN(Cc4cccc5ncnn45)C3)c2)c1OC [Compound 248] | 0.01 to 10 | 50 to 500 | 50 to 500 |  |  |  |
| CNC(=O)c1nnc(NC(=O)C2CC2)cc1Nc1cccc(-c2cnn(C3CN(Cc4ncsc4C)C3)c2)c1OC [Compound 125] |  |  |  | 0.01 to 10 | 500 to 5000 | 500 to 5000 |
| CNC(=O)c1nnc(NC(=O)C2CC2)cc1Nc1cccc(-c2cn([C@H]3CN(Cc4cccc(Cl)n4)[C@@H]3C)nn2)c1OC (stereo in doubt) [Compound 236] | 0.01 to 10 | 50 to 500 | 50 to 500 |  |  |  |
| CNC(=O)c1nnc(NC(=O)C2CC2)cc1Nc1cccc(-c2cnn(C3CN(Cc4cnccn4)C3)c2)c1OC [Compound 110] |  |  |  | 0.01 to 10 | 50 to 500 | 500 to 5000 |
| CNC(=O)c1nnc(NC(=O)C2CC2)cc1Nc1cccc(-c2ccc(C(=O)N(C)Cc3cc(C#N)ccn3)nc2OC)c1OC [Compound 20] |  |  |  | 0.01 to 10 | 500 to 5000 | 500 to 5000 |
| CCn1cncc1CN(C)C(=O)c1ccc(-c2cccc(Nc3cc(NC(=O)C4CC4)nnc3C(=O)NC)c2OC)cn1 [Compound 96] |  |  |  | 0.01 to 10 | 500 to 5000 | 500 to 5000 |
| CNC(=O)c1nnc(NC(=O)C2CC2)cc1Nc1cccc(-c2cnn(C3CN(CC4(C#N)CC4)C3)c2)c1OC [Compound 121] |  |  |  | 0.01 to 10 | 500 to 5000 | 5000 to 100000 |
| CNC(=O)c1nnc(NC(=O)C2CC2)cc1Nc1cccc(-c2ccc(C(=O)N(C)Cc3cnn(C)c3C)nc2)c1OC [Compound 166] |  |  |  | 0.01 to 10 | 500 to 5000 | 500 to 5000 |
| CNC(=O)c1nnc(NC(=O)C2CC2)cc1Nc1cccc(-c2ccc(C(=O)N(C)Cc3scnc3C)nc2)c1OC [Compound 210] | 0.01 to 10 | 5000 to 100000 | 500 to 5000 |  |  |  |
| CNC(=O)c1nnc(NC(=O)C2CC2)cc1Nc1cccc(-c2cnn(C3CN(Cc4cccc5ccnn45)C3)c2)c1OC [Compound 287] | 0.01 to 10 | 50 to 500 | 50 to 500 |  |  |  |
| CNC(=O)c1nnc(NC(=O)C2CC2)cc1Nc1cccc(-c2ccc(C(=O)N(C)[C@H](C)c3cnn(C)c3)nc2)c1OC (single isomer, unassigned) [Compound 115] |  |  |  | 10 to 50 | 5000 to 100000 | 5000 to 100000 |
| CNC(=O)c1nnc(NC(=O)OC2CC2)cc1Nc1cccc(-c2cnn(C3CN(Cc4ccccn4)C3)c2)c1OC [Compound 342] | 0.01 to 10 | 500 to 5000 | 500 to 5000 |  |  |  |
| CNC(=O)c1nnc(NC(=O)C2CC2)cc1Nc1cccc(-c2cncc(C3CN(Cc4ccccn4)C3)c2)c1OC [Compound 280] | 10 to 50 | 5000 to 100000 | 5000 to 100000 |  |  |  |
| CNC(=O)c1nnc(NC(=O)C2CC2)cc1Nc1cccc(-c2cnn(C3CC(C(O)c4ccccn4)C3)c2)c1OC (stereo not drawn) [Compound 370] | 0.01 to 10 | 500 to 5000 | 500 to 5000 |  |  |  |
| CNC(=O)c1nnc(NC(=O)C2CC2)cc1Nc1ccc(C)c(-c2ccc(C3CN(Cc4cc(C#N)ccn4)C3)nc2)c1OC [Compound 321] | 10 to 50 | 5000 to 100000 | 5000 to 100000 |  |  |  |
| CNC(=O)c1nnc(NC(=O)C2CC2)cc1Nc1cccc(-c2cnn(C3CN([C@@H](C)c4cccc(C#N)n4)C3)c2)c1OC (single isomer, unassigned) [Compound 286] | 0.01 to 10 | 50 to 500 | 50 to 500 |  |  |  |
| CNC(=O)c1nnc(NC(=O)C2CC2)cc1Nc1cccc(-c2ccc(C(=O)N(C)Cc3cc(S(C)(=O)=O)ccn3)nc2)c1OC [Compound 72] |  |  |  | 0.01 to 10 | 50 to 500 | 50 to 500 |
| CNC(=O)c1nnc(NC(=O)C2CC2)cc1Nc1ccc(C)c(-c2ccc(C3CN(Cc4ccccn4)C3)nc2)c1OC [Compound 322] | 10 to 50 | 5000 to 100000 | 5000 to 100000 |  |  |  |
| CNC(=O)c1nnc(NC(=O)C2CC2)cc1Nc1cccc(-c2cnn(C3CN(Cc4ccccc4F)C3)c2)c1OC [Compound 90] |  |  |  | 0.01 to 10 | 500 to 5000 | 500 to 5000 |
| CNC(=O)c1nnc(NC(=O)C2CC2)cc1Nc1cccc(-c2cn(C3CN(Cc4cccc(C#N)n4)C3)nn2)c1OC [Compound 183] |  |  |  | 0.01 to 10 | 500 to 5000 | 50 to 500 |
| CNC(=O)c1nnc(NC(=O)C2CC2)cc1Nc1cccc(-c2cnn(C3CN(Cc4nccc5cc[nH]c45)C3)c2)c1OC [Compound 254] | 0.01 to 10 | 50 to 500 | 50 to 500 |  |  |  |

| SMILES | Kd [1] [nM] | IC50 [2, 4] [nM] | IC50 [3, 4] [nM] | Kd ([1]; SPR, JAK2 JH2 domain) [nM] | IC50 ([2]; TF1 JAK2 V617F) [nM] | IC50 ([3]; TF1 JAK2 V617F) [nM] |
| --- | --- | --- | --- | --- | --- | --- |
| CNC(=O)c1nnc(NC(=O)C2CC2)cc1Nc1cccc(-c2cc(C3CN(Cc4cc(C#N)ccn4)C3)nn2C)c1OC [Compound 177] |  |  |  | 0.01 to 10 | 5000 to 100000 | 5000 to 100000 |
| CNC(=O)c1nnc(NC(=O)C2CC2)cc1Nc1cccc(-c2cnn(C3CN(Cc4cccc(COC)n4)C3)c2)c1OC [Compound 216] | 0.01 to 10 | 50 to 500 | 50 to 500 |  |  |  |
| CNC(=O)c1nnc(NC(=O)C2CC2)cc1Nc1ccc(C)c(-c2cnc(C(=O)N(C)Cc3cc(S(C)(=O)=O)ccn3)c(F)c2)c1OC [Compound 340] | 0.01 to 10 | 50 to 500 | 50 to 500 |  |  |  |
| CNC(=O)c1nnc(NC(=O)C2CC2)cc1Nc1cccc(-c2cnc(C(=O)N(C)Cc3ccn(C)n3)nc2)c1OC [Compound 49] |  |  |  | 0.01 to 10 | 500 to 5000 | 500 to 5000 |
| CNC(=O)c1nnc(NC(=O)C2CC2)cc1Nc1cccc(-c2cnn(C3CN(Cc4cccc(C(=O)N5CC(F)(F)C5)n4)C3)c2)c1OC [Compound 311] | 0.01 to 10 | 50 to 500 | 50 to 500 |  |  |  |
| CNC(=O)c1nnc(NC(=O)C2CC2)cc1Nc1cccc(-c2cnn(C3CN(Cc4cccc(C5(O)CC5)n4)C3)c2)c1OC [Compound 274] | 0.01 to 10 | 50 to 500 | 50 to 500 |  |  |  |
| CNC(=O)c1nnc(NC(=O)C2CC2)cc1Nc1cccc(-c2ccc(C(=O)N(C)C[C@@H]3Cc4ccccc4CO3)nc2)c1OC (single isomer, unassigned) [Compound 138] |  |  |  | 10 to 50 | 500 to 5000 | 5000 to 100000 |
| CNC(=O)c1nnc(NC(=O)C2CC2)cc1Nc1cccc(-c2cnn(C3CN(Cc4cccnc4)C3)c2)c1OC [Compound 89] |  |  |  | 0.01 to 10 | 50 to 500 | 50 to 500 |
| CNC(=O)c1nnc(NC(=O)C2CC2)cc1Nc1cccc(-c2ccc(C(=O)N(C)Cc3ncc(COC4CC4)s3)nc2)c1OC [Compound 362] | 0.01 to 10 | 500 to 5000 | 500 to 5000 |  |  |  |
| CNC(=O)c1nnc(NC(=O)C2CC2)cc1Nc1cccc(-c2cnn(C3CN(C(=O)c4ccccn4)C3)c2)c1OC [Compound 229] | 0.01 to 10 | 500 to 5000 | 500 to 5000 |  |  |  |
| [2H]C([2H])(c1cccc(C#N)n1)N1CC(n2cc(-c3cccc(Nc4cc(NC(=O)C5CC5)nnc4C(=O)NC)c3OC)cn2)C1 [Compound 409] |  | 50 to 500 | 50 to 500 | 0.01 to 10 |  |  |
| CNC(=O)c1nnc(NC(=O)C2CC2)cc1Nc1cccc(-c2ccc(C(=O)N(C)Cc3cccc(OC(F)F)c3)nc2)c1OC [Compound 80] |  |  |  | 0.01 to 10 | 50 to 500 | 500 to 5000 |
| CNC(=O)c1nnc(NC(=O)C2CC2)cc1Nc1cccc(-c2ccc(C(=O)N(C)CC3=NO[C@@H]4CCCC[C@H]34)nc2)c1OC (single isomer, unassigned) [Compound 193] |  |  |  | 0.01 to 10 | 50 to 500 | 50 to 500 |
| CNC(=O)c1nnc(NC(=O)C2CC2)cc1Nc1cccc(-c2cnn([C@H]3C[C@H]([C@H](O)c4ccccn4)C3)c2)c1OC (single isomer, unassigned) [Compound 397] |  | 500 to 5000 | 5000 to 100000 | 0.01 to 10 |  |  |
| CNC(=O)c1cnc(NC(=O)C2CC2)cc1Nc1cccc(-c2cnn(C3CN(Cc4ccccn4)C3)c2)c1OC [Compound 190] |  |  |  | 0.01 to 10 | 500 to 5000 | 500 to 5000 |
| CNC(=O)c1nnc(NC(=O)C2CC2)cc1Nc1cccc(-c2ccc(C3CN(Cc4cc(S(C)(=O)=O)ccn4)C3)nc2)c1OC [Compound 330] | 0.01 to 10 | 500 to 5000 | 500 to 5000 |  |  |  |
| CNC(=O)c1nnc(NC(=O)C2CC2)cc1Nc1cccc(-c2cnc(C(=O)N(C)Cc3ccon3)c(F)c2)c1OC [Compound 98] |  |  |  | 0.01 to 10 | 500 to 5000 | 5000 to 100000 |
| CNC(=O)c1nnc(NC(=O)C2CC2)cc1Nc1cccc(-c2cnc(C(=O)N(C)Cc3cccn(C)c3=O)c(F)c2)c1OC [Compound 29] |  |  |  | 0.01 to 10 | 50 to 500 | 50 to 500 |
| CNC(=O)c1nnc(NC(=O)C2CC2)cc1Nc1cccc(-c2cc(C3CN(Cc4cccc(C#N)n4)C3)n(C)n2)c1OC [Compound 202] | 50 to 500 | 5000 to 100000 | 5000 to 100000 |  |  |  |
| CNC(=O)c1nnc(NC(=O)C2CC2)cc1Nc1cccc(-c2cnn(C3CN(Cc4cccc(OC(F)F)n4)C3)c2)c1OC [Compound 243] | 0.01 to 10 | 50 to 500 | 50 to 500 |  |  |  |

Reference: US20240368122A1, “JAK2 INHIBITORS AND METHODS OF USE THEREOF” (RELAY THERAPEUTICS, INC., priority 2021, published 2024)
